Results: patent US20180057505A1, “BICYCLIC HETEROARYL COMPOUNDS USEFUL AS INHIBITORS OF THE PAR-2 SIGNALING PATHWAY” (VERTEX PHARMACEUTICALS INCORPORATED, priority 2015, published 2018)

Tests used:
Type in all cases: cell-based
[1] = system: Thrombin-stimulated Ca2+ response in HT-29 cells; assay: Ca FLIPR TETRA assay, ANTAGONIST mode, activator 1 U/mL Thrombin; details: Homo sapiens; HT-29 cells, activator 1 U/mL Thrombin
How it was run: (§1)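 Antagonist-mode FLIPR Tetra Ca2+ read: dye-loaded HT-29 cells preincubated 30 min at r.t. with compound (first read checks agonism alone), then challenged with final 3.1 U/mL trypsin, 8 μM SLIGKV, 1 U/mL thrombin or 0.6 μM UTP. Cells plated overnight in 1% FBS McCoy's; Calcium 5 loading 45 min 37 °C plus 15 min r.t.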

PAR2 (HT-29 cells) [2] = biological target: T1, PAR2 (HT-29 cells) (Homo sapiens, UniProt P55085); assay: Ca FLIPR TETRA assay, ANTAGONIST mode, activator 3.1 U/mL trypsin; details: HT-29 cells, activator 3.1 U/mL trypsin
T1 construct: host or cells: HT-29
T1 sequence (P55085 26-397): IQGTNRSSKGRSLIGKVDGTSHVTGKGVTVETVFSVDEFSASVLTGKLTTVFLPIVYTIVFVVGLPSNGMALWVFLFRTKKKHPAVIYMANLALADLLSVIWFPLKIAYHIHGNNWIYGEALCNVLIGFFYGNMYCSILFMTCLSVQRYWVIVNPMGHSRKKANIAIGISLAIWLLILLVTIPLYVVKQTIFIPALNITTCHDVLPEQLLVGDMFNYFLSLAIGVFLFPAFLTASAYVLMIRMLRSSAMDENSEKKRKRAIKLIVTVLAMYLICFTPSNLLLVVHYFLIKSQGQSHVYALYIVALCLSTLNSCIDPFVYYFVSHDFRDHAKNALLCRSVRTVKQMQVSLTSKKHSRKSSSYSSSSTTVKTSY
How it was run: as §1

PAR2 (HT-29 cells) [3] = biological target: T1, PAR2 (HT-29 cells); assay: Ca FLIPR TETRA assay, ANTAGONIST mode, activator 8 μM SLIGKV; details: HT-29 cells, activator 8 μM SLIGKV
How it was run: as §1

[4] = system: UTP-stimulated Ca2+ response in HT-29 cells; assay: Ca FLIPR TETRA assay, ANTAGONIST mode, activator 0.6 μM UTP; details: Homo sapiens; for IC50: HT-29 cells, activator 0.6 μM UTP
How it was run: as §1

[5] = maximal antagonist concentration per Method (A: 0.1, 1 or 2 μM; B: 50 μM)
[6] = Method A: maximal concentration of antagonist 0.1, 1 or 2 μM

CCS(=O)(=O)NCC(=O)N1CCN(C(=O)c2cc3nc(C4CC5(CCC5)C4)cc(C(C)(C)C)c3o2)C(C)(C)C1 [Example I-293]
IC50 [1]: > 2000 nM
IC50 (PAR2 (HT-29 cells) [2]; [5]): 6.7 nM
IC50 (PAR2 (HT-29 cells) [3]; [5]): 5.4 nM
IC50 [4]: > 2000 nM

CC(C)c1cc(-c2ccc(F)cc2)nc2cc(C(=O)N3CCN(C(=O)c4ccno4)[C@@H](C)C3)oc12 [Example I-86]
IC50 [1]: > 50000 nM
IC50 (PAR2 (HT-29 cells) [2]; [5]): 530 nM
IC50 (PAR2 (HT-29 cells) [3]; [5]): 390 nM
inhibition at 50 µM ([4]; HT-29, @ 50 (μM)): 60%

CCCS(=O)(=O)N1CCN(C(=O)c2cc3nc(-c4ccc(F)cc4)cc(C4(C)CC4)c3o2)C(C)(C)C1 [Example I-107]
IC50 [1]: > 50000 nM
IC50 (PAR2 (HT-29 cells) [2]; [5]): 28 nM
IC50 (PAR2 (HT-29 cells) [3]; [5]): 34 nM
IC50 [4]: > 50000 nM

CC(C)(C)c1cc(C2CCC(Cl)(Cl)CC2)nc2cc(C(=O)N3CCN(C(=O)[C@H]4CC[C@@](C)(C(=O)O)CC4)CC3(C)C)oc12 [Example I-303]
IC50 [1]: 1300 nM
IC50 (PAR2 (HT-29 cells) [2]; [6]): 0.6 nM
IC50 (PAR2 (HT-29 cells) [3]; [6]): 0.4 nM
IC50 [4]: 1800 nM

Cc1nn(C)cc1S(=O)(=O)N1CCN(C(=O)c2cc3nc(-c4ccc(F)cc4)cc(C(C)C)c3o2)C(C)(C)C1 [Example I-146]
IC50 [1]: > 1000 nM
IC50 (PAR2 (HT-29 cells) [2]; [5]): 21 nM
IC50 (PAR2 (HT-29 cells) [3]; [5]): 13 nM
IC50 [4]: > 1000 nM

CC(C)(CC(=O)N1CCN(C(=O)c2cc3nc(-c4ccc(F)cc4)cc(C(C)(C)C)c3o2)C(C)(C)C1)C(=O)O [Example I-196]
IC50 [1]: > 1000 nM
IC50 (PAR2 (HT-29 cells) [2]; [5]): 1 nM
IC50 (PAR2 (HT-29 cells) [3]; [5]): 0.7 nM
IC50 [4]: > 1000 nM

CC(C)(C)c1cc(-c2ccc(Cl)c(F)c2)nc2cc(C(=O)N3CCN(c4cccc(C(=O)O[C@@H]5OC(C(=O)O)[C@@H](O)C(O)[C@@H]5O)n4)CC3(C)C)oc12 (stereo partly drawn) [Example I-253, (3S,5S,6S)-6-[6-[4-[7-tert-butyl-5-(4-chloro-3-fluoro-phenyl)furo[3,2-b]pyridine-2-carbonyl]-3,3-dimethyl-piperazin-1-yl]pyridine-2-carbonyl]oxy-3,4,5-trihydroxy-tetrahydropyran-2-carboxylic acid]
IC50 [1]: > 2000 nM
IC50 (PAR2 (HT-29 cells) [2]; [5]): 9.5 nM
IC50 (PAR2 (HT-29 cells) [3]; [5]): 3.5 nM
IC50 [4]: > 2000 nM

Cc1ncc(C(=O)N2CCN(C(=O)c3cc4nc(-c5ccc(Cl)cc5)cc(C(C)(C)C)c4o3)C(C)(C)C2)[nH]1 [Example I-180]
IC50 [1]: > 1000 nM
IC50 (PAR2 (HT-29 cells) [2]; [5]): 2.3 nM
IC50 (PAR2 (HT-29 cells) [3]; [5]): 1.1 nM
IC50 [4]: > 1000 nM

CC(C)(C)c1cc(-c2ccc(Cl)c(F)c2)nc2cc(C(=O)N3CCN(c4cccnc4)C(=O)C3(C)C)oc12 [Example I-325]
IC50 [1]: > 2000 nM
IC50 (PAR2 (HT-29 cells) [2]; [6]): 20 nM
IC50 (PAR2 (HT-29 cells) [3]; [6]): 20 nM
IC50 [4]: > 2000 nM

Cc1ccnc(N2CCN(C(=O)c3cc4nc(-c5ccc(Cl)c(F)c5)cc(C(C)(C)C)c4o3)C(C)(C)C2)c1C(=O)O [Example I-485]
IC50 [1]: > 2000 nM
IC50 (PAR2 (HT-29 cells) [2]; [6]): 18 nM
IC50 (PAR2 (HT-29 cells) [3]; [6]): 16 nM
IC50 [4]: > 2000 nM

CC1(C)CCC(c2cc(C(C)(C)C)c3oc(C(=O)N4CCN(c5cnc(C(=O)O)cn5)CC4(C)C)cc3n2)CC1 [Example I-451]
IC50 [1]: > 2000 nM
IC50 (PAR2 (HT-29 cells) [2]; [6]): 5.9 nM
IC50 (PAR2 (HT-29 cells) [3]; [6]): 6.7 nM
IC50 [4]: > 2000 nM

Cc1cc(-c2cc(C(C)(C)C)c3oc(C(=O)N4CCN(C(=O)c5ccn[nH]5)CC4(C)C)cc3n2)ccc1F [Example I-167]
IC50 [1]: > 1000 nM
IC50 (PAR2 (HT-29 cells) [2]; [5]): 19 nM
IC50 (PAR2 (HT-29 cells) [3]; [5]): 8.4 nM
IC50 [4]: > 1000 nM

CC(C)(C)c1cc(-c2ccc(Cl)cc2)nc2cc(C(=O)N3CCN(c4ccnnc4)CC3(C)C)oc12 [Example I-349]
IC50 [1]: > 2000 nM
IC50 (PAR2 (HT-29 cells) [2]; [6]): 75 nM
IC50 (PAR2 (HT-29 cells) [3]; [6]): 80 nM
IC50 [4]: > 2000 nM

C[C@H]1CN(C(=O)c2cc3nc(-c4ccc(F)cc4)cc(C4(C)CC4)c3o2)CCN1C(=O)C1CCOCC1 [Example I-120]
IC50 [1]: 13000 nM
IC50 (PAR2 (HT-29 cells) [2]; [5]): 1300 nM
IC50 (PAR2 (HT-29 cells) [3]; [5]): 360 nM
IC50 [4]: 13000 nM

Cc1cnoc1C(=O)N1CCN(C(=O)c2cc3nc(-c4ccc(F)cc4)cc(C(C)C)c3o2)C(C)(C)C1 [Example I-140]
IC50 [1]: > 1000 nM
IC50 (PAR2 (HT-29 cells) [2]; [5]): 3.5 nM
IC50 (PAR2 (HT-29 cells) [3]; [5]): 4.8 nM
IC50 [4]: > 1000 nM
